Laboratory results from article PMC10486429, “Investigations Using Albumin Binders to Modify the Tissue Distribution Profile of Radiopharmaceuticals Exemplified with Folate Radioconjugates” (Cancers, 2023).
Like-named read-outs stand apart in the source and are kept apart here.

How the values were obtained:
[1] = n-octanol/PBS distribution coefficient (shake-flask) of 177Lu-DOTA-ALBs; assay type: physicochemical; details: n-octanol/PBS pH 7.4
Method: The radiolabeling of DOTA-ALBs was carried out under standard labeling conditions at pH 4.5. The ligands (10−100 μM) were mixed with lutetium-177 (no-carrier added [^177Lu]LuCl3; in 0.04 M HCl; ITM GmbH Medical Isotopes, Munich, Germany) to reach molar activities of 25–50 MBq/nmol (Supplementary Materials Section S2). An analytical HPLC system equipped with a C18 column and a radioactivity detector was used for quality control of the radiolabeled DOTA-ALBs (Supplementary Materials Section S2). The ^177Lu-DOTA-ALBs were used for preclinical investigations without separation of the labeled from the unlabeled fraction. The radiolytic stability of the ^177Lu-DOTA-ALBs (50 MBq/nmol) diluted in phosphate-buffered saline (PBS; 100 MBq/500 μL) was assessed in vitro in the absence and presence of L-ascorbic acid (Supplementary Materials Section S3). The n-octanol/PBS distribution coefficients (logD values) were determined using a shake-flask method according to an established protocol (Supplementary Materials Section S4). The logD values were analyzed using a one-way ANOVA with Tukey’s multiple comparisons post-test using GraphPad Prism software (version 8). […]
Purpose: The n-octanol/PBS distribution coefficients (logD values) were determined for all 177Lu-DOTA-ALBs in order to assess their hydrophilic/hydrophobic properties.
Methods: The n-octanol/PBS distribution coefficients (logD values) of the 177Lu-DOTA-ALBs were determined as previously described. […]
The vials were vortexed vigorously for 1 min followed by centrifugation for 6 min at 560 rcf for phase separation. An aliquot was taken from each phase and measured in a γ-counter (Perkin Elmer, Wallac Wizard 1480, Waltham, MA, USA). The distribution coeffi-cients were calculated as the logarithm of the ratio of counts per minute (cpm) measured in the n-octanol phase relative to the cpm measured in the PBS phase. […]
Methods: Relative binding affinities of 177Lu-DOTA-ALBs to mouse (MSA) and hu-man (HSA) serum albumin in the respective blood plasma were determined using an ul-trafiltration assay according to a previously described procedure. […]

[2] = n-octanol/PBS pH 7.4; cited from earlier work
[3] = parameters: method as in PMID 33063250; details: n-octanol/PBS pH 7.4; cited from earlier work
folate receptor (FR) = target: T1, folate receptor (FR) (Homo sapiens, UniProt P15328); parameters: method as in PMID 34251183; details: IGROV-1 cells; read-out: KD Value (95% CI); cited from earlier work
T1 construct: endogenous in cells; host or cells: IGROV-1 (human ovarian carcinoma cell line), intact cells on ice
T1 sequence (P15328 25-257): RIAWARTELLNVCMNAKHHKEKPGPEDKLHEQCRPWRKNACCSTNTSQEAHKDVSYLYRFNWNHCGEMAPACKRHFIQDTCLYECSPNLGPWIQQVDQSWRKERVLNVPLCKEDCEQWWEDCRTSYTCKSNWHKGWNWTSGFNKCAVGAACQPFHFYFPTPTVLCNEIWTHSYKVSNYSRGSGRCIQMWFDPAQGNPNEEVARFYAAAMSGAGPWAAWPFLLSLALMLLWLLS

[4] = test system: KB tumor-bearing athymic nude mice; parameters: method as in earlier work; details: cited from earlier work

`O=C(O)CN1CCN(CC(=O)O)CCN(CC(=O)NCCC(=O)N[C@@H](CCCCNC(=O)c2ccc(CNC(=O)CCCc3ccc(I)cc3)cc2)C(=O)O)CCN(CC(=O)O)CC1.[177Lu]` [[^177Lu]Lu-DOTA-ALB-3] gave a logD value [1] of −2.64 ± 0.04.

For `O=C(O)CN1CCN(CC(=O)O)CCN(CC(=O)NCCC(=O)N[C@@H](CCCCNC(=O)CCCc2ccc(I)cc2)C(=O)O)CCN(CC(=O)O)CC1.[177Lu]` [[^177Lu]Lu-DOTA-ALB-1], the logD value [2] is given as −3.15 ± 0.04.

For `CN1c2c(nc(N)[nH]c2=O)NCC1CNc1ccc(C(=O)NC(CCC(=O)NC(CCCCNC(=O)CN2CCN(CC(=O)[O-])CCN(CC(=O)[O-])CCN(CC(=O)[O-])CC2)C(=O)NC(CCCCNC(=O)CCCc2ccc(I)cc2)C(=O)O)C(=O)O)cc1.[177Lu+3]` (stereo not drawn) [[^177Lu]Lu-6S-RedFol-1], the “logD Values” [3] is listed as −3.7 ± 0.1 ^4, the Kd (folate receptor (FR)) is listed as 1.7 nM and the “Blood, accumulated activity” value ([4]; 1 h p.i.) is listed as 19 ± 2 % IA/g. For the same compound, the “Bone, accumulated activity” value ([4]; 1 h p.i.) was 2.0 ± 0.2 % IA/g, the “Intestines, accumulated activity” value ([4]; 1 h p.i.) was 1.8 ± 0.4 % IA/g and the “KB tumor, accumulated activity” value ([4]; 1 h p.i.) was 14 ± 3 % IA/g. For the same compound, the “Kidneys, accumulated activity” value ([4]; 1 h p.i.) was 18 ± 2 % IA/g, the “Liver, accumulated activity” value ([4]; 1 h p.i.) was 2.6 ± 0.1 % IA/g and the “Lung, accumulated activity” value ([4]; 1 h p.i.) was 8.5 ± 0.6 % IA/g. The “Muscle, accumulated activity” value ([4]; 1 h p.i.) was 1.6 ± 0.2 % IA/g, the “Salivary glands, accumulated activity” value ([4]; 1 h p.i.) was 4.0 ± 0.2 % IA/g and the “Spleen, accumulated activity” value ([4]; 1 h p.i.) was 2.0 ± 0.2 % IA/g. For the same compound, the “Stomach, accumulated activity” value ([4]; 1 h p.i.) was 1.5 ± 0.3 % IA/g, the Tumor-to-blood ratio ([4]; 1 h p.i.) was 0.73 ± 0.12 and the Tumor-to-kidney ratio ([4]; 1 h p.i.) was 0.75 ± 0.09. The Tumor-to-liver ratio ([4]; 1 h p.i.) was 5.3 ± 1.0, the “Blood, accumulated activity” value ([4]; 4 h p.i.) was 15 ± 2 % IA/g and the “Bone, accumulated activity” value ([4]; 4 h p.i.) was 1.7 ± 0.2 % IA/g. The “Intestines, accumulated activity” value ([4]; 4 h p.i.) was 1.9 ± 0.1 % IA/g, the “KB tumor, accumulated activity” value ([4]; 4 h p.i.) was 26 ± 1 % IA/g and the “Kidneys, accumulated activity” value ([4]; 4 h p.i.) was 33 ± 2 % IA/g. For the same compound, the “Liver, accumulated activity” value ([4]; 4 h p.i.) was 2.3 ± 0.2 % IA/g, the “Lung, accumulated activity” value ([4]; 4 h p.i.) was 6.7 ± 0.6 % IA/g and the “Muscle, accumulated activity” value ([4]; 4 h p.i.) was 1.3 ± 0.1 % IA/g. For the same compound, the “Salivary glands, accumulated activity” value ([4]; 4 h p.i.) was 3.5 ± 0.4 % IA/g, the “Spleen, accumulated activity” value ([4]; 4 h p.i.) was 1.9 ± 0.3 % IA/g and the “Stomach, accumulated activity” value ([4]; 4 h p.i.) was 1.2 ± 0.2 % IA/g. For the same compound, the Tumor-to-blood ratio ([4]; 4 h p.i.) was 1.7 ± 0.2, the Tumor-to-kidney ratio ([4]; 4 h p.i.) was 0.79 ± 0.07 and the “Blood, accumulated activity” value ([4]; 24 h p.i.) was 3.8 ± 0.9 % IA/g. The “Bone, accumulated activity” value ([4]; 24 h p.i.) was 0.53 ± 0.08 % IA/g, the “Intestines, accumulated activity” value ([4]; 24 h p.i.) was 0.49 ± 0.04 % IA/g and the “KB tumor, accumulated activity” value ([4]; 24 h p.i.) was 46 ± 3 % IA/g. The “Kidneys, accumulated activity” value ([4]; 24 h p.i.) was 69 ± 7 % IA/g, the “Liver, accumulated activity” value ([4]; 24 h p.i.) was 0.81 ± 0.22 % IA/g and the “Lung, accumulated activity” value ([4]; 24 h p.i.) was 2.2 ± 0.4 % IA/g. The “Muscle, accumulated activity” value ([4]; 24 h p.i.) was 0.47 ± 0.15 % IA/g, the “Salivary glands, accumulated activity” value ([4]; 24 h p.i.) was 1.4 ± 0.2 % IA/g and the “Spleen, accumulated activity” value ([4]; 24 h p.i.) was 1.1 ± 0.2 % IA/g. For the same compound, the “Stomach, accumulated activity” value ([4]; 24 h p.i.) was 0.51 ± 0.14 % IA/g, the Tumor-to-blood ratio ([4]; 24 h p.i.) was 13 ± 3 and the Tumor-to-kidney ratio ([4]; 24 h p.i.) was 0.67 ± 0.08. For the same compound, the Tumor-to-liver ratio ([4]; 24 h p.i.) was 59 ± 13.

In the case of `CN1c2c(nc(N)[nH]c2=O)NC[C@H]1CNc1ccc(C(=O)N[C@@H](CCC(=O)N[C@@H](CCCCNC(=O)CN2CCN(CC(=O)O)CCN(CC(=O)O)CCN(CC(=O)O)CC2)C(=O)N[C@@H](CCCCNC(=O)CCCc2ccc(I)cc2)C(=O)O)C(=O)O)cc1` [[^177Lu]Lu-6R-RedFol-1, metal not drawn], the “logD Values” [3] is given as −3.9 ± 0.2 ^4, the Kd (folate receptor (FR)) is given as 2.6 nM and the “Blood, accumulated activity” value ([4]; 1 h p.i.) is given as 23 ± 3 % IA/g. The “Bone, accumulated activity” value ([4]; 1 h p.i.) was 2.1 ± 0.3 % IA/g, the “Intestines, accumulated activity” value ([4]; 1 h p.i.) was 2.9 ± 0.3 % IA/g and the “Kidneys, accumulated activity” value ([4]; 1 h p.i.) was 8.4 ± 0.8 % IA/g. The “Liver, accumulated activity” value ([4]; 1 h p.i.) was 3.3 ± 0.3 % IA/g, the “Lung, accumulated activity” value ([4]; 1 h p.i.) was 10 ± 1 % IA/g and the “Muscle, accumulated activity” value ([4]; 1 h p.i.) was 1.6 ± 0.2 % IA/g. The “Salivary glands, accumulated activity” value ([4]; 1 h p.i.) was 5.0 ± 0.3 % IA/g, the “Spleen, accumulated activity” value ([4]; 1 h p.i.) was 2.6 ± 0.2 % IA/g and the “Stomach, accumulated activity” value ([4]; 1 h p.i.) was 1.9 ± 0.4 % IA/g. The Tumor-to-blood ratio ([4]; 1 h p.i.) was 0.46 ± 0.01, the Tumor-to-kidney ratio ([4]; 1 h p.i.) was 1.3 ± 0.1 and the Tumor-to-liver ratio ([4]; 1 h p.i.) was 3.3 ± 0.2. For the same compound, the “Blood, accumulated activity” value ([4]; 4 h p.i.) was 17 ± 1 % IA/g, the “Bone, accumulated activity” value ([4]; 4 h p.i.) was 1.9 ± 0.2 % IA/g and the “Intestines, accumulated activity” value ([4]; 4 h p.i.) was 2.6 ± 0.7 % IA/g. The “KB tumor, accumulated activity” value ([4]; 4 h p.i.) was 20 ± 2 % IA/g, the “Kidneys, accumulated activity” value ([4]; 4 h p.i.) was 12 ± 1 % IA/g and the “Liver, accumulated activity” value ([4]; 4 h p.i.) was 3.0 ± 0.2 % IA/g. The “Lung, accumulated activity” value ([4]; 4 h p.i.) was 7.9 ± 1.4 % IA/g, the “Muscle, accumulated activity” value ([4]; 4 h p.i.) was 1.4 ± 0.1 % IA/g and the “Salivary glands, accumulated activity” value ([4]; 4 h p.i.) was 5.7 ± 0.5 % IA/g. For the same compound, the “Spleen, accumulated activity” value ([4]; 4 h p.i.) was 2.2 ± 0.2 % IA/g, the “Stomach, accumulated activity” value ([4]; 4 h p.i.) was 1.9 ± 0.3 % IA/g and the Tumor-to-blood ratio ([4]; 4 h p.i.) was 1.2 ± 0.1. The Tumor-to-kidney ratio ([4]; 4 h p.i.) was 1.7 ± 0.1, the Tumor-to-liver ratio ([4]; 4 h p.i.) was 6.9 ± 0.7 and the “Blood, accumulated activity” value ([4]; 24 h p.i.) was 5.4 ± 0.9 % IA/g. The “Bone, accumulated activity” value ([4]; 24 h p.i.) was 0.91 ± 0.22 % IA/g, the “Intestines, accumulated activity” value ([4]; 24 h p.i.) was 0.80 ± 0.09 % IA/g and the “KB tumor, accumulated activity” value ([4]; 24 h p.i.) was 47 ± 4 % IA/g. For the same compound, the “Kidneys, accumulated activity” value ([4]; 24 h p.i.) was 24 ± 4 % IA/g, the “Liver, accumulated activity” value ([4]; 24 h p.i.) was 1.3 ± 0.2 % IA/g and the “Lung, accumulated activity” value ([4]; 24 h p.i.) was 3.2 ± 0.6 % IA/g. The “Muscle, accumulated activity” value ([4]; 24 h p.i.) was 0.82 ± 0.22 % IA/g, the “Salivary glands, accumulated activity” value ([4]; 24 h p.i.) was 5.2 ± 1.0 % IA/g and the “Spleen, accumulated activity” value ([4]; 24 h p.i.) was 1.7 ± 0.1 % IA/g. The “Stomach, accumulated activity” value ([4]; 24 h p.i.) was 0.80 ± 0.11 % IA/g, the Tumor-to-blood ratio ([4]; 24 h p.i.) was 8.8 ± 0.8 and the Tumor-to-kidney ratio ([4]; 24 h p.i.) was 2.0 ± 0.4. The Tumor-to-liver ratio ([4]; 24 h p.i.) was 35 ± 4.

With `O=C(O)CN1CCN(CC(=O)O)CCN(CC(=O)NCCC(=O)N[C@@H](CCCCNC(=O)CCCCc2ccc(I)cc2)C(=O)O)CCN(CC(=O)O)CC1.[177Lu]` [[^177Lu]Lu-DOTA-ALB-24] the logD value [1] was −2.68 ± 0.06.

`O=C(O)CN1CCN(CC(=O)O)CCN(CC(=O)NCCC(=O)N[C@@H](CCCCNC(=O)c2ccc(CNC(=O)CCCCc3ccc(I)cc3)cc2)C(=O)O)CCN(CC(=O)O)CC1.[177Lu]` [[^177Lu]Lu-DOTA-ALB-25] gave a logD value [1] of −2.39 ± 0.04.
